Assay results published in patent publication US4218474A, “Derivatives of L- and DL-4-hydroxyphenylglycine” (Pfizer Inc., priority 1977, dated 1980).
Counter-ions that a name gives are not always drawn. Square brackets hold non-standard residues; d marks the D form. Peptide text beside a SMILES is read from it. Hpg = N[C@H](C(=O)O)c1ccc(O)cc1

Key:
[1] = test system: pyruvate oxidation by diaphragm tissue from fat-fed rats; experiment: Stimulation of pyruvate oxidation by diaphragm tissue from fat-fed rats in vitro; type: cell-based; settings: Rattus norvegicus, concentration of 0.5 mmoles, L-compounds
Procedure: Representative compounds of the formula (II) have been tested for their ability to increase the oxidation of glucose and/or pyruvate as follows: Diaphragm tissue is obtained from rats fed on a high fat diet similar to `Diet B` described by Zaragoza and Felber [Horm. Metab. Res., 2, 323 (1970)]. Pyruvate oxidation by such tissue is assessed by measurement of the rate of incorporation of carbon-14 from carbon-14-labelled pyruvate into carbon dioxide in vitro, as described by Bringolf [Eur. J. Biochem., 26, 360 (1972)]. The rate of pyruvate oxidation is depressed by 50%-75% compared with that by diaphragm tissue from rats fed on a normal diet. When the L- and DL-compounds of the formula (II) are added to the medium, they are found to stimulate pyruvate oxidation by diaphragm tissue from fat-fed rats in a dose dependent manner.

[2] = test system: pyruvate dehydrogenase enzyme; experiment: Increase in proportion of active form of pyruvate dehydrogenase (PDHa/PDHt) in hearts of fat-fed rats in vivo; settings: 0.6 mg./kg. oral or sub-cutaneous; rat hearts removed after 11/2 hours; L-compounds; placebo ratio 0.12-0.21
Procedure: The ability of compounds of formula (II) to increase the proportion of the active form of the pyruvate dehydrogenase enzyme has been measured in the following test: Rats fed on a high fat diet as in the previous test, are treated either with placebo or with the compound of formula (II) by subcutaneous or intravenous injection or by oral administration. After 11/2 hours the rat hearts are removed and homogenized under conditions which minimize changes in the proportion of the pyruvate dehydrogenase enzyme […] which is present in the active form, as described by Whitehouse and Randle [Biochem. J., 134, 651 (1973)]. The total amount of the enzyme present (PDHt) and the amount which is present in the active form (PDHa) are assessed by a method similar to that described by Taylor et al. [J. Biol. Chem., 248, 73 (1973)]. The fat-feeding process is found to depress the ratio […] from a normal value of about 0.7 to a value in the range from 0.05 to 0.2. Treatment of fat-fed rats with L- and DL-compounds of formula (II) either parenterally or orally, increases this ratio in a dose-dependent manner. The increase in the […] ratio affected by the L-compounds of formula (II) at a dosage level of 0.6 mg./kg. via the oral or sub-cutaneous route is shown in the following Table: […]

| Compound | activation at 500 µM [1] | PDHa/PDHt ratio, compound [2] |
| --- | --- | --- |
| Cl.N[C@H](C(=O)NCc1ccc(O)cc1)c1ccc(O)cc1 [Example 1, (L)-N-(4-Hydroxybenzyl)-2-amino-2-(4-Hydroxyphenyl)acetamide hydrochloride] | 72% | 1.00 |
| CC(C)NC(=O)[C@@H](N)c1ccc(O)cc1 [Example 2, L-N-isopropyl-2-amino-2-(4-hydroxyphenyl)acetamide] | 108% | 0.65 |
| CC(C)(C)NC(=O)[C@@H](N)c1ccc(O)cc1 [Example 3] | 15% | 0.56 |
| C#CCNC(=O)[C@@H](N)c1ccc(O)cc1 [Example 4, L-N-propargyl-2-amino-2-(4-hydroxyphenyl)acetamide] | 82% | 0.73 |
| N[C@H](C(=O)NC1CCCC1)c1ccc(O)cc1 [Example 5, L-N-cyclopentyl-2-amino-2-(4-hydroxyphenyl)acetamide] | 23% | 0.88 |
| CCN(CC)CCNC(=O)[C@@H](N)c1ccc(O)cc1 [Example 6, L-N-(2-diethylamino)ethyl-2-amino-2-(4-hydroxyphenyl)acetamide] | 38% | 0.78 |
| CNC(=O)[C@@H](N)c1ccc(O)cc1.Cl [Example 13, (L)-N-methyl-2-Amino-2-(4-hydroxyphenyl)acetamide hydrochloride] | 45% | 0.55 |
| COCCNC(=O)[C@@H](N)c1ccc(O)cc1 [Example 14, L-N-(2-methoxyethyl)-2-amino-2-(4-hydroxyphenyl)acetamide] | 76% | 0.88 |
| COc1ccccc1OCC(O)CNC(=O)[C@@H](N)c1ccc(O)cc1 (stereo partly shown) [Example 15] | 55% | 0.25 |
| Cl.N[C@H](C(=O)N[C@@H](Cc1ccc(O)cc1)C(=O)O)c1ccc(O)cc1 [Example 16, N-[(L)-2-(4-Hydroxyphenyl)glycyl]-(L)-tyrosine hydrochloride] (H-[Hpg]-Tyr-OH) | 67% | 0.31 |
| N[C@H](C(=O)NCC(=O)O)c1ccc(O)cc1 [Example 17, N-[(L)-2-(4-hydroxyphenyl)glycyl]-glycine hydrochloride dioxanate] (H-[Hpg]-Gly-OH) | 41% | 0.31 |
